Data reported in paper PMC6264549, “Synthesis and Biological Evaluation of 3-Substituted-indolin-2-one Derivatives Containing Chloropyrrole Moieties” (Molecules, 2011).

Tests used:
[1] = tested on: large cell lung cancer cell lines (NCI-H460); assay: MTT cell growth inhibition assay, NCI-H460; assay type: cell-based; conditions: Homo sapiens, 48 h, NCI-H460 cells, two days, read-out: IC50 ± SD NCI-H460
Method: (§1) The antitumor activities of 14a-r were evaluated in vitro on four tumor cell lines, including non-small cell lung cancer (A549), oral epithelial (KB), melanoma (K111) and large cell lung cancer cell lines (NCI-H460) by the MTT assay, and the results are summarized in Table 1.
(§2) Non-small cell lung cancer (A549), oral epithelial (KB), large cell lung cancer (NCI-H460) and melanoma cell lines (K111) were cultured in Dulbecco’s modified Eagle medium (GIBCO) containing 10% (v/v) inactivated newborn calf serum (Boren Bio-Pharmaceutical Co., Ltd.: Guangzhou, China), […] L-glutamine (SANGON), […] penicillin, 100 µg/mL streptomycin. Cells were grown in a 5% CO2 incubator at 37 °C.
(§3) The antitumor activities were determined by the MTT assay. Cells (2 × 10^3 cells/well) were seeded in 96-well plates. After incubation overnight, each compound, which was dissolved in dimethylsulfoxide (DMSO) and diluted with phosphate buffer solution (PBS), was added to each well and the cells were cultured for another two days at 37 °C. 20 μL (5 mg/mL) MTT solution was added to per well and the culture continued for another 3–4 h. The medium was removed and 100 μL DMSO was added to dissolve formazan crystals. Absorbance was measured at 492 nm using an ELISA reader (Thermo). The antitumor activities were expressed as IC50.

VEGFR2 tyrosine kinase = VEGFR2 tyrosine kinase (Homo sapiens, UniProt P35968); assay: VEGFR2 inhibition assay (ELISA); assay type: biochemical; conditions: 5.0 µM ATP, Poly (Glu, Tyr)4:1 substrate, read-out: IC50 ± SD VEGFR2
VEGFR2 tyrosine kinase, sequence (P35968 20-1356): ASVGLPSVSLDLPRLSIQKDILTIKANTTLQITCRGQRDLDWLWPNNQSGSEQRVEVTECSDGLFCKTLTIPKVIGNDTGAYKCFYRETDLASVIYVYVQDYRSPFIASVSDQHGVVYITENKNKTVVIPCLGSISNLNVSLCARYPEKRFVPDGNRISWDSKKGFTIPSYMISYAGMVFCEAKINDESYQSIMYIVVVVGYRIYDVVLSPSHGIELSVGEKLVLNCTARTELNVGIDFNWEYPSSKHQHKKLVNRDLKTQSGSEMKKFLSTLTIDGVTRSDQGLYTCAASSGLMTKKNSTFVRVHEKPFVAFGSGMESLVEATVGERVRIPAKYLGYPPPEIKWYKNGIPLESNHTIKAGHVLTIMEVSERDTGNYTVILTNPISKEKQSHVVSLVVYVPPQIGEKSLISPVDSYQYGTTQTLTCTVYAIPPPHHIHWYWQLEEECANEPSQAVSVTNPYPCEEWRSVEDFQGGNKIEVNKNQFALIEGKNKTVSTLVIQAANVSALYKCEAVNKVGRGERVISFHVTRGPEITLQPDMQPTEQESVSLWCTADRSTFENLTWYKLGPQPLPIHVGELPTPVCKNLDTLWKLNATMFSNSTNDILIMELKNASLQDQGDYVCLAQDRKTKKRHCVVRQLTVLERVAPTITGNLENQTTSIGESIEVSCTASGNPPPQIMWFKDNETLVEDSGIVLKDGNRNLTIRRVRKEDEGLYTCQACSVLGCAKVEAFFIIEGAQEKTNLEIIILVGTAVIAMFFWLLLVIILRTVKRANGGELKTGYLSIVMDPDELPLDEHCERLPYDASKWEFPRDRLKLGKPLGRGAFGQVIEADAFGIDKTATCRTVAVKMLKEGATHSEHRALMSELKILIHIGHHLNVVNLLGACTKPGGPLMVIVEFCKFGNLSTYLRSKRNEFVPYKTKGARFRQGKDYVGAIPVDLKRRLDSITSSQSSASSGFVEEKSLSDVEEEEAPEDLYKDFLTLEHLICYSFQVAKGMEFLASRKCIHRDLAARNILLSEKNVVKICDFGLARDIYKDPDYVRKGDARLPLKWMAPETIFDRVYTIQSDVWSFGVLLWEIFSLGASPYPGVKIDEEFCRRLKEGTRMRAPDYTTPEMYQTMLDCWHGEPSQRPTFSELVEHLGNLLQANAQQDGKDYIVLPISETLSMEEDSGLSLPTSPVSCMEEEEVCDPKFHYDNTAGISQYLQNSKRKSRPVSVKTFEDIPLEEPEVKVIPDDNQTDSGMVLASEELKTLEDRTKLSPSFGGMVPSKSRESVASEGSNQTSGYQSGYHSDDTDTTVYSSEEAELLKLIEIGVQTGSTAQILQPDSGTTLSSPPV
Method: Seven compounds in the 14a–r series with low IC50 values on the tumor cell lines were evaluated for their inhibition of VEGFR2 using an enzyme-linked immunosorbent assay (ELISA), and the data are summarized in Table 2.
The VEGFR2 inhibition assay was performed by enzyme-linked immunosorbent assay (ELISA) in 96-well plates pre-coated with 2.5 µg/well Poly (Glu, Tyr)4:1 as a substrate. Each well was treated with 90 µL of 5.0 µM ATP (Amresco) solution and 10 µL of one of the seven compounds at varying concentrations, which were diluted in reaction buffer (50 mM HEPES pH 7.4, 20 mM MgCl2, 0.1 mM Na3VO4, 1 mM DTT). […] The reaction was initiated by adding 1 µL/well of VEGFR2 tyrosine kinase. After incubation for 1 h at 37 °C, the plates were washed three times with phosphate buffered saline containing 0.1% Tween-20 (T-PBS). Next, anti-phosphotyrosine (PY99; 1:1,000 dilution, 100 μL/well) antibody was added. After 1 h incubation at room temperature, the plates were washed three times, and goat anti-mouse IgG horseradish peroxidase (100 μL/well of 1:2,000 dilution) diluted in T-PBS was added. The plates were reincubated at room temperature for 1 h, and washed as before. Finally, color development solution (0.03% H2O2 and 2 mg/mL o-phenylenediamine in 0.1 M citrate buffer, pH 5.5, 100 µL/well) was added and the plates were incubated at room temperature until color emerged. The reaction was terminated by the addition of 2 M H2SO4 (50 µL/well), and A492 was measured using a tunable wavelength microplate reader (Molecular Devices SPECTRAMAX190). The inhibition rate was calculated using the equation: [1 − (A492/A492 control)] × 100%.

[2] = tested on: non-small cell lung cancer (A549); assay: MTT cell growth inhibition assay, A549; assay type: cell-based; conditions: Homo sapiens, 48 h, A549 cells, two days, read-out: IC50 ± SD A549
Method: as §1, §2, §3

oral epithelial (KB) = assay: MTT cell growth inhibition assay, KB; assay type: cell-based; conditions: Homo sapiens, 48 h, KB cells, two days
Method: as §1, §2, §3

melanoma (K111) = assay: MTT cell growth inhibition assay, K111; assay type: cell-based; conditions: 48 h, K111 cells, two days, read-out: IC50 ± SD K111
Method: as §1, §2, §3

hERG potassium currents = hERG potassium currents (Homo sapiens, UniProt Q12809); assay: Inhibition of hERG potassium currents in HEK239 cells (cardiotoxicity)
hERG potassium currents, sequence (Q12809 whole entry): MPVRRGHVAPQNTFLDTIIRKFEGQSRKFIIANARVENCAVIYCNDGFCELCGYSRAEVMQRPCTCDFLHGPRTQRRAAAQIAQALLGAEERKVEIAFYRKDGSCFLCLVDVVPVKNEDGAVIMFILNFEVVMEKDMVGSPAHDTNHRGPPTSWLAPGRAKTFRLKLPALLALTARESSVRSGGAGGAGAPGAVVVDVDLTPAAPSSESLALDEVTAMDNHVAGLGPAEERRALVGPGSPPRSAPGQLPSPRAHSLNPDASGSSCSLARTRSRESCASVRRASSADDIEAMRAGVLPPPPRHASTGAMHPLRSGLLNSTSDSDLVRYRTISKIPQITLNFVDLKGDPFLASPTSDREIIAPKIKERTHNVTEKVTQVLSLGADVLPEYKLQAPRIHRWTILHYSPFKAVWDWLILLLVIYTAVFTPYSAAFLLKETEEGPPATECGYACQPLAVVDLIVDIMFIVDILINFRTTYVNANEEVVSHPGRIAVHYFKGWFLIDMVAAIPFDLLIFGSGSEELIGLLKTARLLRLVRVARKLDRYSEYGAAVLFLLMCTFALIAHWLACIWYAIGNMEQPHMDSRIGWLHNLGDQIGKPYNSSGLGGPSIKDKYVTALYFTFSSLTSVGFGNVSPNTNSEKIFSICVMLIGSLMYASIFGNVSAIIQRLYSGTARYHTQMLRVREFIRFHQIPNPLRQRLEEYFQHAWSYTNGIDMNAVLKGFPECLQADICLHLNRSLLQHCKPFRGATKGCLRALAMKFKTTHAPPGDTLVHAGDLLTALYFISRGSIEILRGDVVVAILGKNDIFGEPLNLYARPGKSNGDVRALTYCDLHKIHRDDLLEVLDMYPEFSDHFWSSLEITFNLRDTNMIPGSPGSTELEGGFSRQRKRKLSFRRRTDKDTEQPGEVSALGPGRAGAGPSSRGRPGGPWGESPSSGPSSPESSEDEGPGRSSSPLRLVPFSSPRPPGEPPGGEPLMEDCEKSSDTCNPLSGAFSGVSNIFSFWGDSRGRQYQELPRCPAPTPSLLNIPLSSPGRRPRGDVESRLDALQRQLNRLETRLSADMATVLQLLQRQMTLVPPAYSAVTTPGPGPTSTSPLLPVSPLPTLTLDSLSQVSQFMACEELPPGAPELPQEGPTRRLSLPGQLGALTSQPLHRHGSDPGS

| SMILES | IC50 [1] | IC50 (VEGFR2 tyrosine kinase) | IC50 [2] | IC50 (oral epithelial (KB)) | melting point | IC50 (melanoma (K111)) | IC50 (hERG potassium currents) |
| --- | --- | --- | --- | --- | --- | --- | --- |
| CCNCCNC(=O)c1c(Cl)[nH]c(/C=C2\C(=O)Nc3ccc(F)cc32)c1CC [Compound 14r, (Z)-2-Chloro-4-ethyl-N-(2-(ethylamino)ethyl)-5-((5-fluoro-2-oxoindolin-3-ylidene)methyl)-1H-pyrrole-3-carboxamide] | 1.22 ± 0.1 µM | 0.0087 ± 0.0013 µM | 1.49 ± 0.11 µM | 1.43 ± 0.21 µM | 232 to 233.1 °C | 3.72 ± 0.46 µM |  |
| CCNCCNC(=O)c1c(Cl)[nH]c(/C=C2\C(=O)Nc3ccc(F)cc32)c1C [Compound 14p, (Z)-2-Chloro-N-(2-(ethylamino)ethyl)-5-((5-fluoro-2-oxoindolin-3-ylidene)methyl)-4-methyl-1H-pyrrole-3-carboxamide] | 1.66 ± 0.23 µM | 0.006 ± 0.0012 µM | 1.41 ± 0.09 µM | 0.69 ± 0.07 µM | 215 to 216.8 °C | 1.24 ± 0.16 µM |  |
| Cc1[nH]c(/C=C2\C(=O)Nc3ccc(F)cc32)c(Cl)c1C(=O)NCCCN(C)C [Compound 14e, (Z)-4-Chloro-N-(3-(dimethylamino)propyl)-5-((5-fluoro-2-oxoindolin-3-ylidene)methyl)-2-methyl-1H-pyrrole-3-carboxamide] | > 100 µM |  | 2.33 ± 0.31 µM | 2.88 ± 0.33 µM | 235.1 to 237.3 °C | > 100 µM |  |
| CCc1c(/C=C2\C(=O)Nc3ccc(F)cc32)[nH]c(Cl)c1C(=O)NCCN(CC)CC [Compound 14q, (Z)-2-Chloro-N-(2-(diethylamino)ethyl)-4-ethyl-5-((5-fluoro-2-oxoindolin-3-ylidene)methyl)-1H-pyrrole-3-carboxamide] | > 100 µM |  | 16.7 ± 2.7 µM | 34.4 ± 2.9 µM | 245.2 to 246.8 °C | > 100 µM |  |
| CCCNC(=O)c1c(C)[nH]c(/C=C2\C(=O)Nc3ccc(F)cc32)c1Cl [Compound 14d, (Z)-4-Chloro-5-((5-fluoro-2-oxoindolin-3-ylidene)methyl)-2-methyl-N-propyl-1H-pyrrole-3-carboxamide] | > 100 µM |  | > 100 µM | > 100 µM | > 290 °C | > 100 µM |  |
| Cc1[nH]c(/C=C2\C(=O)Nc3ccc(F)cc32)c(Cl)c1C(=O)NC1CNC1 [Compound 14c, (Z)-N-(azetidin-3-yl)-4-chloro-5-((5-fluoro-2-oxoindolin-3-ylidene)methyl)-2-methyl-1H-pyrrole-3-carboxamide] | 1.41 ± 0.17 µM | 0.0068 ± 0.0018 µM | 2.43 ± 0.26 µM | 1.35 ± 0.12 µM | 230.5 to 232 °C | 3.41 ± 0.52 µM |  |
| CCN(CC)CCNC(=O)c1c(Cl)[nH]c(/C=C2\C(=O)Nc3ccc(F)cc32)c1Cl [Compound 14m, (Z)-2,4-Dichloro-N-(2-(diethylamino)ethyl)-5-((5-fluoro-2-oxoindolin-3-ylidene)methyl)-1H-pyrrole-3-carboxamide] | > 100 µM |  | > 100 µM | > 100 µM | 269.1 to 270.3 °C | > 100 µM |  |
| CCNCCNC(=O)c1c(C)[nH]c(/C=C2\C(=O)Nc3ccc(F)cc32)c1Cl [Compound 14g, (Z)-4-Chloro-N-(2-(ethylamino)ethyl)-5-((5-fluoro-2-oxoindolin-3-ylidene)methyl)-2-methyl-1H-pyrrole-3-carboxamide] | 1.41 ± 0.09 µM | 0.005 ± 0.0011 µM | 1.03 ± 0.09 µM | 0.67 ± 0.08 µM | 211 to 211.8 °C | 1.19 ± 0.21 µM | 0.43 µM |
| CCN(CC)CCNC(=O)c1c(Cl)[nH]c(/C=C2\C(=O)Nc3ccc(Br)cc32)c1C [Compound 14j, (Z)-5-((5-bromo-2-oxoindolin-3-ylidene)methyl)-2-chloro-N-(2-(diethylamino)ethyl)-4-methyl-1H-pyrrole-3-carboxamide] | > 100 µM |  | > 100 µM | 34.2 ± 2.96 µM | 248.1 to 248.5 °C | > 100 µM |  |
| Cc1[nH]c(/C=C2\C(=O)Nc3ccc(F)cc32)c(Cl)c1C(=O)NCCN(C)C [Compound 14f, (Z)-4-Chloro-N-(2-(dimethylamino)ethyl)-5-((5-fluoro-2-oxoindolin-3-ylidene)methyl)-2-methyl-1H-pyrrole-3-carboxamide] | 1.67 ± 0.18 µM | 0.0062 ± 0.0008 µM | 1.69 ± 0.17 µM | 1.56 ± 0.08 µM | 271.8 to 274.2 °C | 1.35 ± 0.28 µM |  |
| CCN(CC)CCNC(=O)c1c(C)[nH]c(/C=C2\C(=O)Nc3ccc(Cl)cc32)c1Cl [Compound 14i, (Z)-4-Chloro-5-((5-chloro-2-oxoindolin-3-ylidene)methyl)-N-(2-(diethylamino)ethyl)-2-methyl-1H-pyrrole-3-carboxamide] | > 100 µM | 0.0112 ± 0.0026 µM | 0.32 ± 0.03 µM | 1.15 ± 0.2 µM | 246 to 247 °C | > 100 µM |  |
| CCN(CC)CCNC(=O)c1c(C)[nH]c(/C=C2\C(=O)Nc3ccccc32)c1Cl [Compound 14k, (Z)-4-Chloro-N-(2-(diethylamino)ethyl)-2-methyl-5-((2-oxoindolin-3-ylidene)methyl)-1H-pyrrole-3-carboxamide] | > 100 µM |  | > 100 µM | 5.09 ± 1.01 µM | 238.5 to 240.1 °C | > 100 µM |  |
| CCN(CC)CCNC(=O)c1cc(/C=C2\C(=O)Nc3ccc(F)cc32)[nH]c1Cl [Compound 14n, (Z)-2-Chloro-N-(2-(diethylamino)ethyl)-5-((5-fluoro-2-oxoindolin-3-ylidene)methyl)-1H-pyrrole-3-carboxamide] | > 100 µM |  | 3.37 ± 0.27 µM | 4.23 ± 0.65 µM | 233.5 to 234.7 °C | > 100 µM |  |
| Cc1[nH]c(/C=C2\C(=O)Nc3ccc(F)cc32)c(Cl)c1C(=O)NCCN1CCOCC1 [Compound 14a, (Z)-4-Chloro-5-((5-fluoro-2-oxoindolin-3-ylidene)methyl)-2-methyl-N-(2-morpholinoethyl)-1H-pyrrole-3-carboxamide] | > 100 µM |  | 1.47 ± 0.13 µM | 52.9 ± 7.93 µM | 268.5 to 269.7 °C | > 100 µM |  |
| CCN(CC)CCNC(=O)c1c(C)[nH]c(/C=C2\C(=O)Nc3ccc(C)cc32)c1Cl [Compound 14l, (Z)-4-Chloro-N-(2-(diethylamino)ethyl)-2-methyl-5-((5-methyl-2-oxoindolin-3-ylidene)methyl)-1H-pyrrole-3-carboxamide] | > 100 µM |  | > 100 µM | 64.4 ± 7.51 µM | 238.2 to 240 °C | > 100 µM |  |
| CCN(CC)CCNC(=O)c1c(Cl)[nH]c(/C=C2\C(=O)Nc3ccc(F)cc32)c1C [Compound 14o, (Z)-2-Chloro-N-(2-(diethylamino)ethyl)-5-((5-fluoro-2-oxoindolin-3-ylidene)methyl)-4-methyl-1H-pyrrole-3-carboxamide] | > 100 µM |  | 2.14 ± 0.26 µM | 1.51 ± 0.11 µM | 243.4 to 244 °C | > 100 µM |  |
| Cc1[nH]c(/C=C2\C(=O)Nc3ccc(F)cc32)c(Cl)c1C(=O)N1CCN(C)CC1 [Compound 14b, (Z)-3-((3-Chloro-5-methyl-4-(4-methylpiperazine-1-carbonyl)-1H-pyrrol-2-yl)methylene)-5-fluoroindolin-2-one] | > 100 µM |  | > 100 µM | > 100 µM | 276.7 to 278.5 °C | > 100 µM |  |
